According to EPA's ToxRefDB 2:

Legend:
rabbit [1] = conditions: Prenatal developmental toxicity study, new zealand white, Oral, Gavage/Intubation, dose end: 18 GD, group: maternal
rat [2] = conditions: Fertility (Segment I), sprague dawley, Oral, Gavage/Intubation, dose end: 7 GD, group: parental
rat [3] = conditions: Peri- and post-natal toxicity study (Segment III), sprague dawley, Oral, Gavage/Intubation, dose end: 21 PND
mouse [4] = conditions: Subchronic oral toxicity in rodents, cd1, Gavage/Intubation, dose end: 94 days, group: systemic
rat [5] = conditions: Sub-acute repeat dose toxicity, sprague dawley, Oral, Gavage/Intubation, dose end: 4 week, group: systemic
rat [6] = conditions: Prenatal developmental toxicity study; sprague dawley; Oral; Gavage/Intubation; dose end: 15 GD; group: maternal; reproductive / reproductive performance / estrous cycle / corpora lutea + reproductive / reproductive performance / implantations / …
mouse [7] = conditions: Carcinogenicity; cd1; Oral; Gavage/Intubation; dose end: 2 year; group: systemic; systemic / in life observation / body weight / body weight gain + systemic / in life observation / clinical signs / [other] + systemic / in …
rat [8] = conditions: Chronic toxicity, sprague dawley, Oral, Gavage/Intubation, dose end: 6 month, group: systemic
dog [9] = conditions: Chronic toxicity; beagle; Oral; Capsule; dose end: 6 month; group: systemic; systemic / clinical chemistry / triglycerides / triglycerides + systemic / in life observation / body weight / body weight gain + systemic…
rabbit [10] = conditions: Prenatal developmental toxicity study, new zealand white, Oral, Gavage/Intubation, dose end: 18 GD, group: maternal; remark: listed apart in the source
rat [11] = conditions: Carcinogenicity; sprague dawley; Oral; Gavage/Intubation; dose end: 2 year; group: systemic; systemic / in life observation / body weight / body weight gain + systemic / in life observation / clinical signs / [other] + systemic / in …
dog [12] = conditions: Chronic toxicity, beagle, Oral, Capsule, dose end: 52 week, group: systemic
rat [13] = conditions: Peri- and post-natal toxicity study (Segment III), sprague dawley, Oral, Gavage/Intubation, dose end: 4 PND
rat [14] = conditions: Prenatal developmental toxicity study; sprague dawley; Oral; Gavage/Intubation; dose end: 15 GD; group: maternal; systemic / in life observation / clinical signs / salivation
[15] = reproductive / reproductive performance / aborted / aborted + reproductive / reproductive performance / postimplantation loss / …
[16] = systemic / in life observation / clinical signs / abnormal respiratory sounds + systemic / in life observation / clinical signs / urogenital…
[17] = systemic / in life observation / clinical signs / abnormal respiratory sounds + systemic / in life observation / food consumption / food …
[18] = group: maternal, reproductive / reproductive performance / reproductive performance other / NOS
[19] = group: maternal, reproductive / reproductive performance / reproductive performance other / NOS + reproductive / offspring survival early / litter viability …
[20] = group: offspring, systemic / in life observation / body weight / offspring (pup) weight
[21] = group: parental, systemic / in life observation / clinical signs / abnormal respiratory sounds + systemic / in life observation / clinical signs / emaciation…
[22] = group: parental, systemic / in life observation / mortality / mortality
[23] = systemic / clinical chemistry / calcium / calcium + systemic / clinical chemistry / cholesterol / cholesterol + systemic / clinical …
[24] = systemic / clinical chemistry / potassium / potassium + systemic / clinical chemistry / bilirubin / total bilirubin + systemic / clinical …
[25] = systemic / clinical chemistry / potassium / potassium + systemic / clinical chemistry / sodium / sodium + systemic / in life observation / …
[26] = systemic / in life observation / clinical signs / motor activity
[27] = systemic / clinical chemistry / chloride / chloride + systemic / clinical chemistry / triglycerides / triglycerides + systemic / clinical …
[28] = systemic / clinical chemistry / triglycerides / triglycerides + systemic / in life observation / body weight / body weight gain + systemic…
[29] = systemic / in life observation / body weight / body weight gain + systemic / in life observation / food consumption / food consumption
[30] = systemic / in life observation / food consumption / food consumption
[31] = systemic / clinical chemistry / triglycerides / triglycerides + systemic / in life observation / body weight / body weight gain
[32] = group: maternal, reproductive / offspring survival early / birth index / live birth index
[33] = group: parental, systemic / in life observation / clinical signs / [other] + systemic / in life observation / clinical signs / labored respiration + systemic…
[34] = group: parental, systemic / in life observation / clinical signs / [other] + systemic / in life observation / clinical signs / salivation + systemic / in …

## CCOC(=O)COc1ccc2c(c1)CC(NCC(O)c1cccc(Cl)c1)CC2.Cl (stereo not drawn)
Rabbit [1]; [15]
  LOAEL: > 500 mg/kg/day
  NEL: 50 mg/kg/day
  NOAEL: ≥ 500 mg/kg/day
Rabbit [1]; reproductive / reproductive performance / postimplantation loss / postimplantation loss
  LEL: 160 mg/kg/day
Rat [2]; [16]
  LOAEL: > 750 mg/kg/day
  NOAEL: ≥ 750 mg/kg/day
Rat [2]; [17]
  LEL: 50 mg/kg/day
  NEL: < 50 mg/kg/day
Rat [3]; [18]
  LEL: 50 mg/kg/day
  NEL: < 50 mg/kg/day
Rat [3]; [19]
  LOAEL: > 750 mg/kg/day
  NOAEL: ≥ 750 mg/kg/day
Rat [3]; [20]
  LEL: 50 mg/kg/day
  LOAEL: 200 mg/kg/day
  NEL: < 50 mg/kg/day
  NOAEL: 50 mg/kg/day
Rat [3]; [21]
  LOAEL: > 750 mg/kg/day
  NOAEL: ≥ 750 mg/kg/day
Rat [3]; [22]
  LEL: 50 mg/kg/day
  NEL: < 50 mg/kg/day
Mouse [4]; [23]
  LOAEL: > 500 mg/kg/day
  NOAEL: ≥ 500 mg/kg/day
Mouse [4]; [24]
  LEL: 100 mg/kg/day
  NEL: < 100 mg/kg/day
Rat [5]; [25]
  LOAEL: > 500 mg/kg/day
  NOAEL: ≥ 500 mg/kg/day
Rat [5]; [26]
  LEL: 20 mg/kg/day
  NEL: < 20 mg/kg/day
Rat [6]
  LEL: 200 mg/kg/day
  LOAEL: > 750 mg/kg/day
  NEL: 50 mg/kg/day
  NOAEL: ≥ 750 mg/kg/day
Mouse [7]
  LEL: 25 mg/kg/day
  LOAEL: > 100 mg/kg/day
  NEL: < 25 mg/kg/day
  NOAEL: ≥ 100 mg/kg/day
Rat [8]; [27]
  LOAEL: > 500 mg/kg/day
  NOAEL: ≥ 500 mg/kg/day
Rat [8]; [28]
  LEL: 20 mg/kg/day
  NEL: < 20 mg/kg/day
Dog [9]
  LEL: 10 mg/kg/day
  LOAEL: > 250 mg/kg/day
  NEL: < 10 mg/kg/day
  NOAEL: ≥ 250 mg/kg/day
Rabbit [10]; [29]
  LOAEL: > 500 mg/kg/day
  NOAEL: ≥ 500 mg/kg/day
Rabbit [10]; [30]
  LEL: 50 mg/kg/day
  NEL: < 50 mg/kg/day
Rat [11]
  LEL: 50 mg/kg/day
  LOAEL: > 500 mg/kg/day
  NEL: < 50 mg/kg/day
  NOAEL: ≥ 500 mg/kg/day
Dog [12]; [31]
  LEL: 10 mg/kg/day
  NEL: < 10 mg/kg/day
Dog [12]; [28]
  LOAEL: > 250 mg/kg/day
  NOAEL: ≥ 250 mg/kg/day
Rat [13]; [32]
  LEL: 200 mg/kg/day
  LOAEL: > 750 mg/kg/day
  NEL: 50 mg/kg/day
  NOAEL: ≥ 750 mg/kg/day
Rat [13]; [33]
  LOAEL: > 750 mg/kg/day
  NOAEL: ≥ 750 mg/kg/day
Rat [13]; [34]
  LEL: 50 mg/kg/day
  NEL: < 50 mg/kg/day
Rat [14]
  LEL: 200 mg/kg/day
  LOAEL: > 750 mg/kg/day
  NEL: 50 mg/kg/day
  NOAEL: ≥ 750 mg/kg/day
